Assay results taken from PubChem BioAssay (NCI).
Several values for one entry are separate records, joined by “and”; a condition that tells them apart may be missing. Identical values can stand only once.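 Following 48 hours of exposure in 96-well plates, responses at five concentrations were used to interpolate endpoints linearly. GI50 marks 50% less growth. TGI marks complete inhibition of growth.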

Experiments:
Assay in all cases: NCI-60 cell line screen, 48 h
[1] = system: MDA-N
[2] = system: DMS 114 small cell lung
[3] = system: DMS 273 small cell lung
[4] = system: HOP-18 NSCLC
[5] = system: KM20L2 colon
[6] = system: LXFL 529 NSCLC
[7] = system: RXF-631 renal
[8] = system: SNB-78 CNS
[9] = system: XF 498 CNS

SMILES | TGI [2] | TGI [3] | TGI [4] | TGI [5] | TGI [6] | TGI [7] | TGI [8] | TGI [9] | also measured
COc1cc2c3c(c1)c1cc(OC)c(OC)cc1c[n+]3CC2 |  |  |  |  |  |  |  |  | GI50 [1]: > 100 µM; TGI [1]: 50 µM and > 100 µM
CCNC(=O)C#CC(=O)NCC | > 100 µM | > 10 µM and 39.6 µM | > 100 µM | > 100 µM | > 100 µM | > 100 µM | > 100 µM | > 100 µM | GI50 [2]: > 10 µM; GI50 [3]: > 10 µM; GI50 [4]: > 10 µM; GI50 [5]: > 10 µM; GI50 [6]: > 10 µM; GI50 [7]: > 10 µM; GI50 [8]: > 100 µM
CC(=O)OCCOCNC(=S)N/N=C(\C)c1cnc2ccccc2n1 | 47.4 µM | > 100 µM | > 100 µM | > 100 µM | > 100 µM |  | > 100 µM | > 100 µM | 
C=C=C(CC)C(C(=O)OC)N(CC)CC (configuration not stated) | > 100 µM |  | > 100 µM | > 100 µM | > 100 µM | > 100 µM | > 100 µM | > 100 µM | 
O=C1C[C@@H]2C(COC(=O)c3ccccc3)N(OCc3ccccc3)C[C@@H]2O1 (some centres not stated) | > 100 µM | > 100 µM | > 100 µM | > 100 µM | > 100 µM | > 100 µM | > 100 µM |  | 
COc1ccc2c(c1OC)C1=C(C2=O)c2cc3c(cc2CCN1)OCO3 | 56.7 µM | 52.9 µM | > 100 µM | 41 µM | > 100 µM |  | > 100 µM | 87.2 µM | 
CN1NC2(CCCCC2)ON=C1c1ccccc1 | > 100 µM |  | > 100 µM | > 100 µM |  |  | > 100 µM |  | 
C(=N\OCc1ccccc1)/c1ncccc1C1OCCO1 | > 100 µM | > 100 µM | > 100 µM | > 100 µM | > 100 µM |  | > 100 µM |  | 
OCCSCc1ccccc1 |  |  |  |  |  |  |  |  | TGI [1]: > 100 µM
Cc1c(C(=O)c2ccccc2C(=O)O)c2ccccc2n1C | > 100 µM | > 100 µM |  | > 100 µM | > 100 µM |  | > 100 µM | > 100 µM | 
CC(=O)O[C@H]1CC[C@@]2(C)C(=CC[C@H]3C4=CC=C(C(C)=O)[C@@]4(C)CCC32)C1 (some centres not stated) |  | > 100 µM | > 100 µM | > 100 µM | > 100 µM |  | > 100 µM |  | 
CN1CCCN(C)C1c1cc([N+](=O)[O-])ccc1O |  |  |  |  |  |  |  |  | TGI [1]: > 100 µM
CN(C)C(N)=NC#N | > 100 µM | > 100 µM | > 100 µM | > 100 µM | > 100 µM | > 100 µM | > 100 µM |  | 
C[C@]1(CO)[C@H]2CC[C@@]34C=C[C@@](CO)(CC[C@H]3[C@]2(C)CC[C@H]1O)C4 |  |  |  |  |  |  |  |  | TGI [1]: > 100 µM
CCCCNN |  |  |  |  |  |  |  |  | TGI [1]: > 100 µM
CCC(=O)C(C)C1=Nc2nnc(CCCCCCCc3nnc4n3C(=O)C(C(C)C(=O)CC)=N4)n2C1=O (configuration not stated) | > 100 µM |  | > 100 µM | > 100 µM | > 100 µM |  |  | > 100 µM | 
Cc1ccc(S(=O)(=O)NC(=O)NC23CC4CC(CC(F)(C4)C2)C3)cc1 | > 100 µM | > 100 µM |  | > 100 µM | > 100 µM |  | > 100 µM | > 100 µM | 
C1CCN(c2nsc(N3CCCCC3)n2)CC1 | > 100 µM | > 100 µM | > 100 µM | > 100 µM | > 100 µM | > 100 µM | > 100 µM |  | 
COc1cccc(NC(=O)CC(=O)N2N=C(N(CCC#N)c3ccccc3C)CC2c2ccccc2)c1 (configuration not stated) | > 100 µM | > 100 µM | > 100 µM | > 100 µM | > 100 µM | > 100 µM | > 100 µM |  | 
